This note sets out measurements from US20180353462A1, “[…] AGENTS […] FLAVONOID DERIVATIVES TARGETING KINASES, SIRTUINS AND ONCOGENIC AGENTS FOR THE TREATMENT OF CANCERS” (priority 2015, published 2018).

One assay has as its target T1, DYRK1/DYRK1A (Homo sapiens, UniProt Q13627).
T1 construct: made in house
The assay is described as follows: Kinase competition binding assay, DYRK1/DYRK1A. Conditions: Table 1 kinase panel. The procedure:
(§1) Cannabis flavonoids and their analogs were subjected to kinase inhibition assay. The compounds were first screened at a single concentration of 10 μM in the primary assay. […]. To determine the kd or IC50 values, competition binding assays were established, authenticated and executed as described previously. Fabian et al., “A Small Molecule-Kinase Interaction Map For Clinical Kinase Inhibitors.”, Nat Biotechnol, 23(3):329-36, Epub (2005). See also, Karaman et al., “A Quantitative Analysis Of Kinase Inhibitor Selectivity”, Nat. Biotechnol. […] For most assays, kinases were fused to T7 phage strains (Fabian, supra) and for the other assays, kinases were produced in HEK-293 cells after which they were tagged with DNA for quantitative PCR detection. In general, full-length constructs were used for small, single domain kinases, and catalytic domain constructs for large multi-domain kinases. The binding assays utilized streptavidin-coated magnetic beads treated with biotinylated small molecule ligands for 30 minutes at room temperature which generated affinity resins for the kinase assays. The liganded beads were blocked with excess biotin and washed with blocking buffer (SeaBlock (Pierce), 1% BSA, 0.05% Tween 20, 1 mM DTT) to remove unbound ligand and to reduce non-specific phage binding. […] Test compounds were prepared as 40× stocks in 100% DMSO and diluted directly into the assay (Final DMSO concentration=2.5%). All reactions were performed in polypropylene 384-well plates in a final volume of 0.04 ml. […] The beads were then re-suspended in elution buffer (1×PBS, 0.05% Tween 20, 0.5 μM non-biotinylated affinity ligand) and incubated at room temperature with shaking for 30 minutes. The kinase concentration in the eluates was measured by quantitative PCR. An illustration of the kinase interaction process is presented below. Kd/IC50 values were determined using a standard dose response curve using the hill equation. Curves were fitted using a non-linear least square fit with the Levenberg-Marquardt algorithm.
(§2) The compound(s) were screened at 10 μM and results for primary screen binding interactions are reported as ‘% Ctrl’, where lower numbers indicate stronger hits in the matrix.

A further assay has as its target T2, FLT4(VEGFR3) (Homo sapiens, UniProt P35916).
T2 construct: made in house
As to the kind of experiment: Kinase competition binding assay, FLT4(VEGFR3). Conditions: Table 1 kinase panel. On the procedure: as §1, §2

A further assay deals with T3, RIOK1 (Homo sapiens, UniProt Q9BRS2).
T3 construct: T7 phage fusion (most assays) or DNA tag for qPCR (HEK-293-made kinases); made in house
T3 sequence (Q9BRS2 1-568): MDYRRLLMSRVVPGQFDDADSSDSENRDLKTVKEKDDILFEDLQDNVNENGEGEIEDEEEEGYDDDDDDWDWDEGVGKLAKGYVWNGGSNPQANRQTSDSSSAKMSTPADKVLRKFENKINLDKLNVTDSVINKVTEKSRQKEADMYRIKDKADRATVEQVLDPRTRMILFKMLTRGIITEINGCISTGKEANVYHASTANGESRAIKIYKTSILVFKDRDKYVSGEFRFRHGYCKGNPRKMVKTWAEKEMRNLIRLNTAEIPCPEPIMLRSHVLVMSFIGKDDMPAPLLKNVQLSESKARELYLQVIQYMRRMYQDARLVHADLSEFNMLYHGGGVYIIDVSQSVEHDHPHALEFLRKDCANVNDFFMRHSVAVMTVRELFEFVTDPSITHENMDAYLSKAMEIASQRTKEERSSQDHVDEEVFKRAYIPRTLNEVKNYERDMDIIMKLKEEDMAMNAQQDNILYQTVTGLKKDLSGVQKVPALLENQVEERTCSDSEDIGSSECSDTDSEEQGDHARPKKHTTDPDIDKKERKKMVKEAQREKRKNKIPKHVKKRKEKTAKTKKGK
As to the kind of experiment: Kinase competition binding assay, RIOK1. Conditions: Table 1 kinase panel. The procedure: as §1, §2

For another assay, the system named is CFPAC-1 (Pancreatic). As to the kind of experiment: WST-1 anticancer cell proliferation assay, CFPAC-1. In kind it is cell-based, human. Conditions: 72 hours. On the procedure: (§3) Bioactivity of the above-described compounds has been verified by an anticancer cell proliferation assay using the WST-1 (4-[3-(4-iodophenyl)-2-(4-nitrophenyl)-2H-5-tetrazolio]-1, 3-benzene disulfonate) colorimetric assay by Roche Life Sciences®. Anticancer activity was tested against several standard cancer cell lines including brain, breast, Kaposi sarcoma, leukemia, lung, melanoma, tenosynovial giant cell tumor, ovarian, pancreatic, colon and prostate cancer. Cells were trypsinized and plated into 96 well plates in 50 μl of media and incubated overnight. The next day approximately 18 hours after plating, 50 μl of media containing the required flavonoid-based pharmaceutical composition was added per well. Cells were plated at a density so that 72 hours post drug addition, the cells will be in log phase (500)-2000 cells/well). The compounds and extracts were solubilized in Dimethyl sulfoxide (DMSO). The cells are allowed to proliferate for 72 hours 37° C. in humidified atmosphere of 5% CO2. The experiment is terminated using WST-1 (Roche®) 10 μl per well and absorbance is read at 450 nm %690 nm. The effect of drugs on growth is assessed as percent of cell viability. The IC50 values were determined from the extract dose versus control growth curves using Graphpad Prism® software. All experiments were carried out in duplicate and the mean results determined.

Another assay addresses T4, DRAK2 (Homo sapiens, UniProt O94768).
T4 construct: made in house
T4 sequence (O94768 1-372): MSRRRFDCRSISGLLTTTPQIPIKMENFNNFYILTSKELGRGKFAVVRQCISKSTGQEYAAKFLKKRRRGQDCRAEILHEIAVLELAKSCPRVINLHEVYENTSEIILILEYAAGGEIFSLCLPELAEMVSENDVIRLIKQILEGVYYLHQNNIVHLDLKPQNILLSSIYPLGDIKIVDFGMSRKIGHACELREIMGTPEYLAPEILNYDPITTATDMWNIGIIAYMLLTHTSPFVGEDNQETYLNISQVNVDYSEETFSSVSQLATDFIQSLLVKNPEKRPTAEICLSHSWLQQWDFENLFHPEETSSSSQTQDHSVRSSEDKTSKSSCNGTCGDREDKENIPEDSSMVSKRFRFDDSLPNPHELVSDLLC
As to the kind of experiment: Kinase competition binding assay, DRAK2. Conditions: Table 1 kinase panel. The procedure: as §1, §2

The target of another assay is T5, FGR (Homo sapiens, UniProt P09769).
T5 construct: made in house
T5 sequence (P09769 whole entry): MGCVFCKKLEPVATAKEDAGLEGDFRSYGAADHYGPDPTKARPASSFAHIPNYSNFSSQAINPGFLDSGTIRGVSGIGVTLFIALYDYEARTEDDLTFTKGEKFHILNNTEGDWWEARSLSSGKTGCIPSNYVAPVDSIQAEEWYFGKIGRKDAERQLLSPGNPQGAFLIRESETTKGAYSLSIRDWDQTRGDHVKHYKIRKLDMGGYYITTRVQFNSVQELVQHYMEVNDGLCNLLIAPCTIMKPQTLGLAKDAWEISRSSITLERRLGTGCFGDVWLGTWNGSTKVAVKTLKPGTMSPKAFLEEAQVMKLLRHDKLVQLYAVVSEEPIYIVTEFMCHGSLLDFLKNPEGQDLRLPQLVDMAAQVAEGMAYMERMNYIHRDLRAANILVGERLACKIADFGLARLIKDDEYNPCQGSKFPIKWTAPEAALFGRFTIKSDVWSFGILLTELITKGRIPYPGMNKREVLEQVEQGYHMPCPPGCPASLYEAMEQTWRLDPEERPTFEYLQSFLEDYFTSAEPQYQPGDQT
The assay is described as follows: Kinase competition binding assay, FGR. Conditions: Table 1 kinase panel. On the procedure: as §1, §2

For another assay, the target named is T6, KIT(V559D) (Homo sapiens, UniProt P10721, V559D).
T6 construct: made in house
T6 sequence (P10721 26-976 V559D): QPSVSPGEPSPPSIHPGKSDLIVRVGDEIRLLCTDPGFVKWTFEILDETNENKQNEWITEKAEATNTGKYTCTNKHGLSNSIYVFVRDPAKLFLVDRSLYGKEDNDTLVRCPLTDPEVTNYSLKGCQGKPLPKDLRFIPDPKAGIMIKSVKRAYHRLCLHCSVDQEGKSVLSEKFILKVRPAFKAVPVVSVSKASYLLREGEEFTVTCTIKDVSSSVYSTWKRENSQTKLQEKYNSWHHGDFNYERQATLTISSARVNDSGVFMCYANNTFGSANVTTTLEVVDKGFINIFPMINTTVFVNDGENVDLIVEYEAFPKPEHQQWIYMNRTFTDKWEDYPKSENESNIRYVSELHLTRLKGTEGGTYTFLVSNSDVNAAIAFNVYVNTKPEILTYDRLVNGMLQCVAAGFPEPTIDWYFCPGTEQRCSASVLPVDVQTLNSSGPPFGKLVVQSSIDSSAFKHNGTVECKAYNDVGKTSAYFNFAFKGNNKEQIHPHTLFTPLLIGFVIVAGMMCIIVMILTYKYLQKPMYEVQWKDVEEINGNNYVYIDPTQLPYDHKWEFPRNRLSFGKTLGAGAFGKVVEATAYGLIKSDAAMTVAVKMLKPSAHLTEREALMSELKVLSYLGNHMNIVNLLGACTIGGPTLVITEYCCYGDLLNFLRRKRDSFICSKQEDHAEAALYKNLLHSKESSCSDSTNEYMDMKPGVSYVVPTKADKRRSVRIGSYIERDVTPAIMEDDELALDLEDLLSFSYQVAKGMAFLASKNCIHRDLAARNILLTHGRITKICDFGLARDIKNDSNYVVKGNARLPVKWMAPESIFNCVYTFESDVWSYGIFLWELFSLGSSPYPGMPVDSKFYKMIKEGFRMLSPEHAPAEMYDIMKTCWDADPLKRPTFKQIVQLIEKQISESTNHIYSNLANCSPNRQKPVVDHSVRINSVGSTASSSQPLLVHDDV
The assay is described as follows: Kinase competition binding assay, KIT(V559D). Conditions: Table 1 kinase panel. The procedure:
as §1, §2

The next assay deals with T7, DYRK1B (Homo sapiens, UniProt Q9Y463).
T7 construct: made in house
T7 sequence (Q9Y463 whole entry): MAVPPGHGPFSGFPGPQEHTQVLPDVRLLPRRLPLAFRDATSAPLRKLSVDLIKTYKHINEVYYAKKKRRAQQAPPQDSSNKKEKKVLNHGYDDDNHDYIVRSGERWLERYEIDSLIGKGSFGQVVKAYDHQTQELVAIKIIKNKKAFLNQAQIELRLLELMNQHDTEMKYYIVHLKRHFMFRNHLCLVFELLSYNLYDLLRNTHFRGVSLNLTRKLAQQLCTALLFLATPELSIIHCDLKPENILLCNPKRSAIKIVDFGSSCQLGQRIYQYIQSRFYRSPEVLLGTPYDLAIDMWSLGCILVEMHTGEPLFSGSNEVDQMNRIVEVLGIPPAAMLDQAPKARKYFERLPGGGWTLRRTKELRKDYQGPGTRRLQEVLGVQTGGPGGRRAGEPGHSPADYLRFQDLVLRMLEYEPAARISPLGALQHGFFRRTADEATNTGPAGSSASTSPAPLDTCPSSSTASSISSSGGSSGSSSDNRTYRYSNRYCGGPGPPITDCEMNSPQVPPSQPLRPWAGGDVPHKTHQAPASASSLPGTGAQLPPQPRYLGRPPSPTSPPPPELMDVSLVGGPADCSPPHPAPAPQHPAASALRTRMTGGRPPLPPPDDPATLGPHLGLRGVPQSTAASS
As to the kind of experiment: Kinase competition binding assay, DYRK1B. Conditions: Table 1 kinase panel. The procedure:
as §1, §2

The next assay has as its system U87 (Glioma). As to the kind of experiment: WST-1 anticancer cell proliferation assay, U87. In kind it is cell-based. Conditions: 72 hours. On the procedure: as §3
On the technique in general: Tetrazolium assays rely on reduction of a dye to a coloured formazan, in cell work by metabolically active cells.

For another assay, the target named is T8, PDGFRa(T674I) (Homo sapiens, UniProt P16234, T674I).
T8 construct: catalytic domain constructs for large multi-domain kinases; T7 phage fusion (most assays) or DNA tag for qPCR (HEK-293-made kinases); made in house
T8 sequence (P16234 593-954 T674I limits assumed): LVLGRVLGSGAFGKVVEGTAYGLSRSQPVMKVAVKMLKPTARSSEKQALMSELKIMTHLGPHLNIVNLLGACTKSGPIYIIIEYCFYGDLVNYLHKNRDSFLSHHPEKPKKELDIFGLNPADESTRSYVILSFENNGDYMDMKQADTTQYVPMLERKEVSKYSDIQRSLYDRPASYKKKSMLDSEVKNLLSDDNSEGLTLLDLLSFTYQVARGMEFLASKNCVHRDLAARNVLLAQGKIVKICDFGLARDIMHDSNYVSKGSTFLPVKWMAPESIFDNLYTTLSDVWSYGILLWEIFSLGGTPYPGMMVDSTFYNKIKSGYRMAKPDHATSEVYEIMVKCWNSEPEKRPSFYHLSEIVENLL
As to the kind of experiment: Kinase competition binding assay, PDGFRa(T674I). Conditions: Table 1 kinase panel. On the procedure: as §1, §2

T2 sequence (P35916 25-1363): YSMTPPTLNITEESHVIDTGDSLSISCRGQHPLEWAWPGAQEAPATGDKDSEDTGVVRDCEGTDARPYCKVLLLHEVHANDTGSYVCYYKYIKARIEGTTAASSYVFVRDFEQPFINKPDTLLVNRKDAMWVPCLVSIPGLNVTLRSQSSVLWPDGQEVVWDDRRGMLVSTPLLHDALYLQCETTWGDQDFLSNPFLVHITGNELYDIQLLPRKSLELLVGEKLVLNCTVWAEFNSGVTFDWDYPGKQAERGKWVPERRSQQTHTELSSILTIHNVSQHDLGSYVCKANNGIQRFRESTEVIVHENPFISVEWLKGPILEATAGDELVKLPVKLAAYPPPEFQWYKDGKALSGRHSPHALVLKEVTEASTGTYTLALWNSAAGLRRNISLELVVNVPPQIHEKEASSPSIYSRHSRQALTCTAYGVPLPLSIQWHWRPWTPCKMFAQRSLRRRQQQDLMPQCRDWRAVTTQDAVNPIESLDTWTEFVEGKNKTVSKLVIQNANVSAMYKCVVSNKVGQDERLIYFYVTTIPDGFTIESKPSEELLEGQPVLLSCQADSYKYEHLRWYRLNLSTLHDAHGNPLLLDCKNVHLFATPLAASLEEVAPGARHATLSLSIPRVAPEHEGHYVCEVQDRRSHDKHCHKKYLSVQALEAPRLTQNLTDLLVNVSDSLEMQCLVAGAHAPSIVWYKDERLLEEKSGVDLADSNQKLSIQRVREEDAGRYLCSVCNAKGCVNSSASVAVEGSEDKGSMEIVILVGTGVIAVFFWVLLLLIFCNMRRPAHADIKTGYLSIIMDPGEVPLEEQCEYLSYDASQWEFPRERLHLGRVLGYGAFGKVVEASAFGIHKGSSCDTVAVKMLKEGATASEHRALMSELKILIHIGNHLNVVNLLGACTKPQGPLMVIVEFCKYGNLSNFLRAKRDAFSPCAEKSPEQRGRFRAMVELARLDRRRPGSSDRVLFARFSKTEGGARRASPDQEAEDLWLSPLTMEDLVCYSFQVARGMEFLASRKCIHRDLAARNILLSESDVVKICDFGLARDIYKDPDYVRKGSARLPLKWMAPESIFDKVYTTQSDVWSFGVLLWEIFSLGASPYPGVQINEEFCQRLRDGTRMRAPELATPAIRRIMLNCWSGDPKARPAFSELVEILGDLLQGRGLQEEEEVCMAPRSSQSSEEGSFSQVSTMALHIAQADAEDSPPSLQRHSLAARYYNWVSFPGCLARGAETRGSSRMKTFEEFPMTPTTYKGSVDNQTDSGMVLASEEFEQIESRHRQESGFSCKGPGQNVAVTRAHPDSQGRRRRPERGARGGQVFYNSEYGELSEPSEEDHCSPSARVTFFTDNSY

As a reminder, the IC50 is the concentration that gives 50% inhibition. Higher therefore signals weaker potency in that assay. As for `COc1cc(-c2cc(=O)c3c(O)c(C/C=C(\C)CCC=C(C)C)c(O)cc3o2)ccc1O` [FBL-03A], the IC50 is greater than 20000 nM at DYRK1/DYRK1A; 330 nM at FLT4(VEGFR3); greater than 20000 nM at RIOK1; 12 µM in the assay on CFPAC-1 (Pancreatic); greater than 20000 nM at DRAK2; greater than 20000 nM at FGR. Also, the IC50 on KIT(V559D) is 200 nM; at DYRK1B, greater than 20000 nM; in the assay with U87 (Glioma), 34 µM.

As to `COc1ccc(-c2cc(=O)c3c(O)c(C/C=C(\C)CCC=C(C)C)c(O)cc3o2)cc1OC` [FBL-03D], the IC50 at DYRK1/DYRK1A, at FLT4(VEGFR3), at RIOK1, at DRAK2, at FGR and at KIT(V559D) was greater than 30000 nM each time. The IC50 on DYRK1B and at PDGFRa(T674I) was greater than 30000 nM in each case.

For `COc1cc(-c2cc(=O)c3c(O)c(CC=C(C)C)c(O)cc3o2)ccc1O` [FBL-03B], the IC50 at DYRK1/DYRK1A is less than 1000 nM; at FLT4(VEGFR3) it was 9.3 nM; at RIOK1 it was greater than 10000 nM; with CFPAC-1 (Pancreatic), 17 µM; on DRAK2, less than 1000 nM; on FGR, 224 nM. Further, the IC50 at KIT(V559D) was less than 1000 nM; on DYRK1B it was 1670 nM; in the assay on U87 (Glioma) it was 6.2 µM; at PDGFRa(T674I), 0.92 nM.

Regarding `COc1cc(-c2cc(=O)c3c(O)cc(O)c(C/C=C(\C)CCC=C(C)C)c3o2)ccc1O` [FBL-03C], the IC50 at DYRK1/DYRK1A is 620 nM; at FLT4(VEGFR3) it was greater than 20000 nM; at RIOK1, 340 nM; with CFPAC-1 (Pancreatic) it was 12 µM; at DRAK2, 980 nM; at FGR, greater than 20000 nM. Besides, the IC50 at KIT(V559D) is greater than 1000 nM; on DYRK1B, 6400 nM; in the assay with U87 (Glioma), 12.5 µM; on PDGFRa(T674I) it was greater than 1000 nM.

Take `COc1cc(-c2cc(=O)c3c(O)cc(O)c(CC=C(C)C)c3o2)ccc1O` [FBL-03G]: the IC50 at DYRK1/DYRK1A is 36 nM; on FLT4(VEGFR3) it was 4220 nM; at RIOK1, greater than 20000 nM; in the assay on CFPAC-1 (Pancreatic), 14.3 µM; at DRAK2 it was greater than 10000 nM; at FGR it was 880 nM. In addition, the IC50 on KIT(V559D) was less than 1000 nM; at DYRK1B, 22.8 nM; in the assay on U87 (Glioma), 5.46 µM; at PDGFRa(T674I) it was 2360 nM.
